This is an account of results in paper PMC10682951, “Structure-function and rational design of a spider toxin Ssp1a at human voltage-gated sodium channel subtypes” (Frontiers in Pharmacology, 2023).

Bridge positions count the residues as written; N and C are the ends. Peptide text beside a SMILES is read from it.

What all share (assay type): cell-based
One assay deals with T1, hNaV1.2 (Homo sapiens, UniProt Q99250).
T1 construct: host or cells: HEK293
Kind of assay: Automated whole-cell patch-clamp (QPatch 16X), hNaV1.2. The settings on record: for IC50: HEK293 cells expressing hNaV1.2 + β1 subunit, QPatch 16X, holding −80 mV, step to 0 mV, peptide incubated 2 min, 0.1% BSA, mean, SEM and n (2-7); for Loss (reduction) in potency vs rSsp1a at hNaV1.2: relative to wild type rSsp1a. In a few lines:
(§1)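 HEK293 cells stably expressing the channel (human subtypes with β1 subunit), held at −80 mV; 2 min peptide pre-incubation, then 20 ms steps to 0 mV after a 200 ms −120 mV conditioning pulse. Extracellular pH 7.3 with 20 mM TEA-Cl, CsF-based pipette solution, 0.1% BSA; IC50 from four-parameter Hill fit.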

In the next assay the target is T2, hNaV1.7 (Homo sapiens, UniProt Q15858).
T2 construct: host or cells: HEK293
T2 sequence (Q15858 whole entry): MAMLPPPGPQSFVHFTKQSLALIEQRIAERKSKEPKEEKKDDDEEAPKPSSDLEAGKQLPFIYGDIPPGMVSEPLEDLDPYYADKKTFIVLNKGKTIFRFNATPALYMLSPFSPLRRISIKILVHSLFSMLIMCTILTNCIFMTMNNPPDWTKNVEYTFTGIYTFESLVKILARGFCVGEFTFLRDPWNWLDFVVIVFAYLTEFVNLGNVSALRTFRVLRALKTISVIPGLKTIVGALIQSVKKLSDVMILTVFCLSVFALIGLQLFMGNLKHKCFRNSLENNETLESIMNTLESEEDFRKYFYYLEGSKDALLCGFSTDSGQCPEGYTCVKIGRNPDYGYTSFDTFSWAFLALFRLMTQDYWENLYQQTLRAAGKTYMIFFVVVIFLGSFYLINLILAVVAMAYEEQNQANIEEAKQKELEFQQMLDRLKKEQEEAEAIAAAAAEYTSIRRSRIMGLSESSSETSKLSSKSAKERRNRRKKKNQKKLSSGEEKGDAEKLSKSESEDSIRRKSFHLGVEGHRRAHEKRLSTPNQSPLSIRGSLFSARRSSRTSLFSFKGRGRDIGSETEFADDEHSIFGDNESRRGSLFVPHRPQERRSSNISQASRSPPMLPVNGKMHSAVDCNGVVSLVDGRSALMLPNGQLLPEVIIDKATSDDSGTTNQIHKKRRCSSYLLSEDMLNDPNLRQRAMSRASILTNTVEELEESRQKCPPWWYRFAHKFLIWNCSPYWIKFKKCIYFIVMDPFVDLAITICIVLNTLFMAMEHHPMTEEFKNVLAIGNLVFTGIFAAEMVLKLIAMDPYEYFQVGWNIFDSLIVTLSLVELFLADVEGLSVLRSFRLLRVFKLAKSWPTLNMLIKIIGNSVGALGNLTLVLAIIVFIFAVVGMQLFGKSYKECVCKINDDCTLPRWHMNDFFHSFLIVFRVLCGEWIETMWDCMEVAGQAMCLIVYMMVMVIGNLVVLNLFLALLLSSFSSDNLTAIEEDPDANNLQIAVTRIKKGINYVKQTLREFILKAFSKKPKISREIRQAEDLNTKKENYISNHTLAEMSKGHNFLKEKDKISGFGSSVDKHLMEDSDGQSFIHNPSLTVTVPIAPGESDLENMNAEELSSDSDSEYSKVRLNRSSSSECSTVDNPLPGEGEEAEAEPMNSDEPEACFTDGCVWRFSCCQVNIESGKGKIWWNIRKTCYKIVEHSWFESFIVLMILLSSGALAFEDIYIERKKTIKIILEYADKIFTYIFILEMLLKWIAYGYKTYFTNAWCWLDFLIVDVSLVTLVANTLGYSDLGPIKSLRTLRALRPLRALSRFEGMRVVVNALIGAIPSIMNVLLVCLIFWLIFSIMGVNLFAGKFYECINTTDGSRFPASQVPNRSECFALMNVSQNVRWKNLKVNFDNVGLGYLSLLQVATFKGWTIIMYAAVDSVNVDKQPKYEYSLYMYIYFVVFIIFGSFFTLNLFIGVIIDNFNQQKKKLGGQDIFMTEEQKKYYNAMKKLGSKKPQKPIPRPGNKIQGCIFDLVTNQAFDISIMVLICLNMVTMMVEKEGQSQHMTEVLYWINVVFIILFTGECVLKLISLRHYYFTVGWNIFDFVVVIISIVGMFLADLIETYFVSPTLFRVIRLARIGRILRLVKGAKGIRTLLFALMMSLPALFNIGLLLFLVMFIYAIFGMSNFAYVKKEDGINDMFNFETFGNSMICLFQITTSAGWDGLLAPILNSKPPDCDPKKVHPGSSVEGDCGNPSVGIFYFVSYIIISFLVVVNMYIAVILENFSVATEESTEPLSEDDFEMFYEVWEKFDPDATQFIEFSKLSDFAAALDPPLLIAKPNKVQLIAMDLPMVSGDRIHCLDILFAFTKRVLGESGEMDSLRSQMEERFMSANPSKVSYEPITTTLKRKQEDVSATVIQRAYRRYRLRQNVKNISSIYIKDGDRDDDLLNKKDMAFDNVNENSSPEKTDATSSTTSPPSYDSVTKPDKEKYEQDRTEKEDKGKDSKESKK
T2 sequence (Q07699 19-218, further chain): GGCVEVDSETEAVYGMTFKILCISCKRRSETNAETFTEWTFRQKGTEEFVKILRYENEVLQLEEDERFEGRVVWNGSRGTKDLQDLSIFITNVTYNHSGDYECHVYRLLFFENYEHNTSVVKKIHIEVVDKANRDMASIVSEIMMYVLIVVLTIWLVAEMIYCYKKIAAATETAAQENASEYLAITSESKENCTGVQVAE
Kind of assay: Automated whole-cell patch-clamp (QPatch 16X), hNaV1.7. The settings on record: for IC50: HEK293 cells expressing hNaV1.7 + β1 subunit, QPatch 16X, holding −80 mV, step to 0 mV, peptide incubated 2 min, 0.1% BSA, mean, SEM and n (3-9); for Loss (reduction) in potency vs rSsp1a at hNaV1.7: relative to wild type rSsp1a. In a few lines: as §1

The target in the next assay is T3, hNaV1.3 (Homo sapiens, UniProt Q9NY46).
T3 construct: host or cells: HEK293
T3 sequence (Q9NY46 whole entry): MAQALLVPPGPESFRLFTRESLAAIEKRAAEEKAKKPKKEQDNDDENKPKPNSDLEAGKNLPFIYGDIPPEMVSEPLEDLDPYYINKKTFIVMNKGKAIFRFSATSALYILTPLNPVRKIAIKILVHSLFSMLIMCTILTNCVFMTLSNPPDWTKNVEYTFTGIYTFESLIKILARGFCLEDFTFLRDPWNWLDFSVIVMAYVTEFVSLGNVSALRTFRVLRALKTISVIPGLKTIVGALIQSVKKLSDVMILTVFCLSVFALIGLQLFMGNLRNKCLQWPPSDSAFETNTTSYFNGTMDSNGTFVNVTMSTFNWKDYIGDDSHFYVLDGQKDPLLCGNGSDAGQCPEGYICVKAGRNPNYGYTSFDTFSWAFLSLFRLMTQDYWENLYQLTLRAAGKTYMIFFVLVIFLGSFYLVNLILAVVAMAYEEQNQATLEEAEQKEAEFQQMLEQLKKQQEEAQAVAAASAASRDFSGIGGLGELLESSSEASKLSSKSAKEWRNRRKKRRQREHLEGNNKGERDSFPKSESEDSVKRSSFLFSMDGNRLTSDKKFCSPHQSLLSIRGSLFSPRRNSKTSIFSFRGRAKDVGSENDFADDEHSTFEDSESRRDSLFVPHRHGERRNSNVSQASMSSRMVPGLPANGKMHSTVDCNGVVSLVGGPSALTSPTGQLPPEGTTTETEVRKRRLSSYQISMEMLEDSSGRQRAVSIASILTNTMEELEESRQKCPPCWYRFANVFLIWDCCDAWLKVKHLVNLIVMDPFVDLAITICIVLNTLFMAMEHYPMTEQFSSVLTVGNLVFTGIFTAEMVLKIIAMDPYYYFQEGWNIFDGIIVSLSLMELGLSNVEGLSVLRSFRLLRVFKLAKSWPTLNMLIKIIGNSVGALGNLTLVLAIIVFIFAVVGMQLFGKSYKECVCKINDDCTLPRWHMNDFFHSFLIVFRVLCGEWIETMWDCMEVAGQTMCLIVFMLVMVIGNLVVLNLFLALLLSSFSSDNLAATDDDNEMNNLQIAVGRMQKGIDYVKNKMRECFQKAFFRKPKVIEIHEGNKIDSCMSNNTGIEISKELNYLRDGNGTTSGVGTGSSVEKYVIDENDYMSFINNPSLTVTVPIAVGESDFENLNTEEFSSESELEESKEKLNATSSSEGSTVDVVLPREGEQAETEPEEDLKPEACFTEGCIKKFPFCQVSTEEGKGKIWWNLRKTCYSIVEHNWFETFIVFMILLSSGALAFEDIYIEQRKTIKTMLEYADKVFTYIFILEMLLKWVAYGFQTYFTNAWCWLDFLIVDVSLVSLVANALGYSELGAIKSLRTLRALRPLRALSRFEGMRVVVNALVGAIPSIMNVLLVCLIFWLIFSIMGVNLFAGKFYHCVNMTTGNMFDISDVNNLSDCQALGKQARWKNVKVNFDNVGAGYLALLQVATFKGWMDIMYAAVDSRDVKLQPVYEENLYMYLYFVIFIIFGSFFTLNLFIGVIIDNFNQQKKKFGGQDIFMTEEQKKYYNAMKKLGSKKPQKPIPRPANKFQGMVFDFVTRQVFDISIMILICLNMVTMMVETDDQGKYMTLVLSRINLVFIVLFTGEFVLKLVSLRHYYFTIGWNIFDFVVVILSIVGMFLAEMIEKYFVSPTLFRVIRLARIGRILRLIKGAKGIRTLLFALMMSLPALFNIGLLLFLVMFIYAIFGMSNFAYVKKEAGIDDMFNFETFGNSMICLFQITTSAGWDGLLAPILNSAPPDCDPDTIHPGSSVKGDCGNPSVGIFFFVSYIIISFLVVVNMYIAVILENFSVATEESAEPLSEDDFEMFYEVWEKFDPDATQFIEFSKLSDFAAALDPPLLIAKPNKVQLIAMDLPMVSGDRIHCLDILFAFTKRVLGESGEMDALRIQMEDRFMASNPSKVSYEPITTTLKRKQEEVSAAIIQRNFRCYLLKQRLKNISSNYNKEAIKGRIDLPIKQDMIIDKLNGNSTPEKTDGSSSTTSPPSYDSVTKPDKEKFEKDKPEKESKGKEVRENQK
T3 sequence (Q07699 19-218, further chain): as the sequence (Q07699 19-218, further chain) above
Briefly: Automated whole-cell patch-clamp (QPatch 16X), hNaV1.3. The settings on record: HEK293 cells expressing hNaV1.3 + β1 subunit; QPatch 16X; holding −80 mV, step to 0 mV; peptide incubated 2 min; 0.1% BSA; mean, SEM and n (3-12). In a few lines:
as §1
(In general: The patch-clamp technique gives a direct electrical read-out from membranes.)

As to `CC(C)C[C@H](NC(=O)[C@H](CC(=O)O)NC(=O)[C@H](Cc1ccc(O)cc1)NC(=O)[C@H](C)NC(=O)[C@@H]1CSSC[C@@H]2NC(=O)[C@H](CCCCN)NC(=O)[C@H](CC(N)=O)NC(=O)[C@H](CC(N)=O)NC(=O)[C@H](CC(N)=O)NC(=O)[C@@H]3CCCN3C(=O)[C@H](CC(=O)O)NC(=O)[C@@H]3CSSC[C@H](NC(=O)[C@H](C(C)C)NC(=O)[C@H](Cc4ccc(O)cc4)NC(=O)CNC(=O)[C@H](CCC(=O)O)NC(=O)[C@H](CSSC[C@H](NC(=O)[C@H](CC(=O)O)NC(=O)CN)C(=O)N[C@@H](CC(C)C)C(=O)NCC(=O)N[C@@H](Cc4c[nH]c5ccccc45)C(=O)N[C@@H](Cc4ccccc4)C(=O)N[C@@H](CO)C(=O)NCC(=O)N3)NC2=O)C(=O)N[C@@H](Cc2c[nH]cn2)C(=O)N[C@@H](Cc2c[nH]c3ccccc23)C(=O)N[C@@H](CCCCN)C(=O)N[C@@H](Cc2ccc(O)cc2)C(=O)N2CCC[C@H]2C(=O)N[C@@H](Cc2c[nH]c3ccccc23)C(=O)N1)C(=O)O` [R30A] (H-GDCLGWFSGCDPNNNKCCEGYVCHWKYPWCAYDL-OH; disulfide 3-18, 10-23, 17-30 (inferred); N-terminus and C-terminus assumed), at hNaV1.2, the IC50 is > 1000 nM and the “Loss (reduction) in potency vs rSsp1a at hNaV1.2” value is reported as ≥ 10 fold. Also, on hNaV1.7, the IC50 is > 1000 nM and the “Loss (reduction) in potency vs rSsp1a at hNaV1.7” value was ≥ 10 fold. For the same compound, the IC50 at hNaV1.3 was > 1000 nM.

In the case of `CC(C)C[C@H](NC(=O)[C@H](CC(=O)O)NC(=O)[C@H](Cc1ccc(O)cc1)NC(=O)[C@H](CCCNC(=N)N)NC(=O)[C@@H]1CSSC[C@@H]2NC(=O)[C@H](CCCCN)NC(=O)[C@H](CC(N)=O)NC(=O)[C@H](CC(N)=O)NC(=O)[C@H](CC(N)=O)NC(=O)[C@@H]3CCCN3C(=O)[C@H](CC(=O)O)NC(=O)[C@@H]3CSSC[C@H](NC(=O)[C@H](C(C)C)NC(=O)[C@H](Cc4ccc(O)cc4)NC(=O)CNC(=O)[C@H](CCC(=O)O)NC(=O)[C@H](CSSC[C@H](NC(=O)[C@H](CC(=O)O)NC(=O)CN)C(=O)N[C@@H](CC(C)C)C(=O)NCC(=O)N[C@@H](Cc4c[nH]c5ccccc45)C(=O)N[C@@H](Cc4ccccc4)C(=O)N[C@@H](CCCCN)C(=O)NCC(=O)N3)NC2=O)C(=O)N[C@@H](Cc2c[nH]cn2)C(=O)N[C@@H](Cc2c[nH]c3ccccc23)C(=O)N[C@@H](CCCCN)C(=O)N[C@@H](Cc2ccc(O)cc2)C(=O)N2CCC[C@H]2C(=O)N[C@@H](Cc2ccccc2)C(=O)N1)C(=O)O` [S7K/W28F] (H-GDCLGWFKGCDPNNNKCCEGYVCHWKYPFCRYDL-OH; disulfide 3-18, 10-23, 17-30), the concentration for half-maximal inhibition (IC50) was > 3000 nM at hNaV1.2, 1470 nM at hNaV1.7 and > 3000 nM on hNaV1.3.

In the case of `CC(C)C[C@H](NC(=O)[C@H](CC(=O)O)NC(=O)[C@H](Cc1ccc(O)cc1)NC(=O)[C@H](CCCNC(=N)N)NC(=O)[C@@H]1CSSC[C@@H]2NC(=O)[C@H](CCCCN)NC(=O)[C@H](CC(N)=O)NC(=O)[C@H](CC(N)=O)NC(=O)[C@H](CC(N)=O)NC(=O)[C@@H]3CCCN3C(=O)[C@H](CC(=O)O)NC(=O)[C@@H]3CSSC[C@H](NC(=O)[C@H](C(C)C)NC(=O)[C@H](Cc4ccc(O)cc4)NC(=O)CNC(=O)[C@H](CCC(=O)O)NC(=O)[C@H](CSSC[C@H](NC(=O)[C@H](CC(=O)O)NC(=O)CN)C(=O)N[C@@H](CC(C)C)C(=O)NCC(=O)N[C@@H](Cc4c[nH]c5ccccc45)C(=O)N[C@@H](Cc4ccccc4)C(=O)N[C@@H](CCCCN)C(=O)NCC(=O)N3)NC2=O)C(=O)N[C@@H](Cc2c[nH]cn2)C(=O)N[C@@H](Cc2c[nH]c3ccccc23)C(=O)N[C@@H](CCCCN)C(=O)N[C@@H](Cc2ccc(O)cc2)C(=O)N2CCC[C@H]2C(=O)N[C@@H](Cc2c[nH]c3ccccc23)C(=O)N1)C(=O)O` [S7K], the half-maximal inhibitory concentration (IC50) at hNaV1.2 was 201 nM; on hNaV1.7, 181 nM; at hNaV1.3 it was 929 nM.

Consider `CC(C)C[C@H](NC(=O)[C@H](CC(=O)O)NC(=O)[C@H](Cc1ccc(O)cc1)NC(=O)[C@H](CCCNC(=N)N)NC(=O)[C@@H]1CSSC[C@@H]2NC(=O)[C@H](CCCCN)NC(=O)[C@H](CC(N)=O)NC(=O)[C@H](CC(N)=O)NC(=O)[C@H](CC(N)=O)NC(=O)[C@@H]3CCCN3C(=O)[C@H](CC(=O)O)NC(=O)[C@@H]3CSSC[C@H](NC(=O)[C@H](C(C)C)NC(=O)[C@H](Cc4ccc(O)cc4)NC(=O)CNC(=O)[C@H](CCC(=O)O)NC(=O)[C@H](CSSC[C@H](NC(=O)[C@H](CC(=O)O)NC(=O)CN)C(=O)N[C@@H](CC(C)C)C(=O)NCC(=O)N[C@@H](Cc4c[nH]c5ccccc45)C(=O)N[C@@H](Cc4ccccc4)C(=O)N[C@@H](CCCNC(=N)N)C(=O)NCC(=O)N3)NC2=O)C(=O)N[C@@H](Cc2c[nH]cn2)C(=O)N[C@@H](Cc2c[nH]c3ccccc23)C(=O)N[C@@H](CCCCN)C(=O)N[C@@H](Cc2ccc(O)cc2)C(=O)N2CCC[C@H]2C(=O)N[C@@H](Cc2c[nH]c3ccccc23)C(=O)N1)C(=O)O` [S7R], for which the IC50 at hNaV1.2 is 153 nM; at hNaV1.7, 94 nM; at hNaV1.3, 333 nM.

Regarding `CC(C)C[C@H](NC(=O)[C@H](CC(=O)O)NC(=O)[C@H](Cc1ccc(O)cc1)NC(=O)[C@H](CCCNC(=N)N)NC(=O)[C@@H]1CSSC[C@@H]2NC(=O)[C@H](CCCCN)NC(=O)[C@H](CC(N)=O)NC(=O)[C@H](CC(N)=O)NC(=O)[C@H](CC(N)=O)NC(=O)[C@@H]3CCCN3C(=O)[C@H](CC(=O)O)NC(=O)[C@@H]3CSSC[C@H](NC(=O)[C@H](C(C)C)NC(=O)[C@H](Cc4ccc(O)cc4)NC(=O)CNC(=O)[C@H](CCC(=O)O)NC(=O)[C@H](CSSC[C@H](NC(=O)[C@H](CC(=O)O)NC(=O)CN)C(=O)N[C@@H](CC(C)C)C(=O)NCC(=O)N[C@@H](C)C(=O)N[C@@H](Cc4ccccc4)C(=O)N[C@@H](CO)C(=O)NCC(=O)N3)NC2=O)C(=O)N[C@@H](Cc2c[nH]cn2)C(=O)N[C@@H](Cc2c[nH]c3ccccc23)C(=O)N[C@@H](CCCCN)C(=O)N[C@@H](Cc2ccc(O)cc2)C(=O)N2CCC[C@H]2C(=O)N[C@@H](Cc2c[nH]c3ccccc23)C(=O)N1)C(=O)O` [W5A] (H-GDCLGAFSGCDPNNNKCCEGYVCHWKYPWCRYDL-OH; disulfide 3-18, 10-23, 17-30 (inferred); N-terminus and C-terminus assumed), the concentration for half-maximal inhibition (IC50) on hNaV1.2, at hNaV1.7 and at hNaV1.3 was > 1000 nM throughout. The “Loss (reduction) in potency vs rSsp1a at hNaV1.2” value at hNaV1.2 is given as ≥ 10 fold. Further, the “Loss (reduction) in potency vs rSsp1a at hNaV1.7” value at hNaV1.7 was ≥ 10 fold.

Consider `CC(C)C[C@H](NC(=O)[C@H](CC(=O)O)NC(=O)[C@H](Cc1ccc(O)cc1)NC(=O)[C@H](CCCNC(=N)N)NC(=O)[C@@H]1CSSC[C@@H]2NC(=O)[C@H](CCCCN)NC(=O)[C@H](CC(=O)O)NC(=O)[C@H](CC(N)=O)NC(=O)[C@H](CC(N)=O)NC(=O)[C@@H]3CCCN3C(=O)[C@H](CC(=O)O)NC(=O)[C@@H]3CSSC[C@H](NC(=O)[C@H](C(C)C)NC(=O)[C@H](Cc4ccc(O)cc4)NC(=O)CNC(=O)[C@H](CCC(=O)O)NC(=O)[C@H](CSSC[C@H](NC(=O)[C@H](CC(=O)O)NC(=O)CN)C(=O)N[C@@H](CC(C)C)C(=O)NCC(=O)N[C@@H](Cc4ccccc4)C(=O)N[C@@H](Cc4ccccc4)C(=O)N[C@@H](CO)C(=O)NCC(=O)N3)NC2=O)C(=O)N[C@@H](Cc2c[nH]cn2)C(=O)N[C@@H](Cc2c[nH]c3ccccc23)C(=O)N[C@@H](CCCCN)C(=O)N[C@@H](Cc2ccc(O)cc2)C(=O)N2CCC[C@H]2C(=O)N[C@@H](Cc2c[nH]c3ccccc23)C(=O)N1)C(=O)O` [W5F/N14D] (H-GDCLGFFSGCDPNNDKCCEGYVCHWKYPWCRYDL-OH; disulfide 3-18, 10-23, 17-30), for which the IC50 was 735 nM on hNaV1.2, 391 nM on hNaV1.7 and 1200 nM at hNaV1.3.

By IC50 is commonly meant the point on the concentration scale where inhibition reaches its midpoint.
